Measured values reported in patent US20250179059A1 (The Regents of the University of California, priority 2021, published 2025).

Legend:
[1] = biological target: T1, human BRD4 bromodomain II (Homo sapiens, UniProt O60885); test: Bromodomain binding assay (AlphaScreen), BRD4 BDII; conditions: AlphaScreen assay, Table C2; read-out: BRD4 BDII IC50
T1 construct: human BRD4 bromodomain II [based on Genbank NM_058243, residues 349-460]; host or cells: E. coli
Procedure, shortened: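 AlphaScreen competition: His6-BRD4 BDI (aa 44-170) or BDII (aa 349-460) vs biotin-H4(1-21) K5/K8/K12/K16Ac peptide; Ni-chelate acceptor/streptavidin donor beads. HEPES pH 7.5, NaCl, CHAPS, BSA, 1% DMSO; RT. 10-pt 3-fold titration, % peptide binding fitted → IC50.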

[2] = tested on: human SKM-1 acute myeloid leukemia cells; test: SKM-1 antiproliferation cell-based assay (ATPlite); conditions: Homo sapiens, SKM-1, 96 h, SKM-1 antiproliferation assay, 4 days, Table C2
Description: The cell-based assay indirectly measures cell density (and therefore proliferation and/or survival) by detecting total ATP concentration in a homogeneous format. Briefly, human SKM-1 acute myeloid leukemia cells (Leibniz Institute DSMZ #ACC 547) proliferating in log phase are collected by centrifugation, re-suspended in culture media (RPMI 1640/15% FBS/100 U/mL penicillin/100 μg/mL streptomycin) and diluted to 34722 cells/mL in media after counting. Then 180 μL cells are plated per well into a 96-well tissue-culture treated, clear bottom plate (Coming #3603). A 96-well compound plate (Corning #3357) is then generated by serial dilution of compounds into DMSO over nine concentrations and adding separate negative (DMSO) and positive control (reference compound) wells. Each compound concentration is tested in triplicate. First, 1 μL from each well of the compound plate is added to 99 μL culture media in an intermediate plate and mixed by pipetting. Then 20 μL of the diluted compounds in media are added to the assay plate containing the cells. The assay plate is maintained for 4 days in a standard cell culture incubator. At the end of the incubation period, 100 μL ATPlite Istep (PerkinElmer) is added to the assay plate wells, and the resulting luminescence is detected using an Infinite M1000 or a Spark multimode plate reader (Tecan). Data analysis is performed in Prism (GraphPad Software). For curve fitting, a non-linear regression, variable slope equation is used to calculate cellular IC50s.

SMILES	IC50 [1] [nM]	GI50 [2] [nM]
CC(=O)Nc1ccc(-c2cccc(-c3ccnc(N4CC[C@H](N)C4)c3)c2O)cc1F [Example 248, (S)-N-(3′-(2-(3-aminopyrrolidin-1-yl)pyridin-4-yl)-3-fluoro-2′-hydroxy-[1,1′-biphenyl]-4-yl)acetamide]	1 to 10	30 to 300
O=C1CCCN1c1ccc(-c2cccc(-c3cncc(N4CCNCC4)c3)c2O)cc1F [Example 249, 1-(3-fluoro-2′-hydroxy-3′-(5-(piperazin-1-yl)pyridin-3-yl)-[1,1′-biphenyl]-4-yl)pyrrolidin-2-one]	1 to 10	30 to 300
CC(=O)Nc1ccc(-c2cccc(-c3ccnc(N4CC[C@@H](O)C4)c3)c2O)cc1F [Example 251, (R)-N-(3-fluoro-2′-hydroxy-3′-(2-(3-hydroxypyrrolidin-1-yl)pyridin-4-yl)-[1,1′-biphenyl]-4-yl)acetamide]	10 to 100	30 to 300
C[C@@H]1CN(c2cc(-c3cccc(-c4ccc(N5CCCC5=O)c(F)c4)c3O)ccn2)CCN1 [Example 252, (R)-1-(3-fluoro-2′-hydroxy-3′-(2-(3-methylpiperazin-1-yl)pyridin-4-yl)-[1,1′-biphenyl]-4-yl)pyrrolidin-2-one]	1 to 10	300 to 3000
C[C@@H]1CN(c2cc(-c3cccc(-c4ccc(N5CCCC5=O)c(Cl)c4)c3O)ccn2)CCN1 [Example 253, (R)-1-(3-chloro-2′-hydroxy-3′-(2-(3-methylpiperazin-1-yl)pyridin-4-yl)-[1,1′-biphenyl]-4-yl)pyrrolidin-2-one]	1 to 10	300 to 3000
CC(=O)Nc1ccc(-c2cccc(-c3cccc(N4CCNC(=O)C4)c3)c2O)cc1F [Example 254, N-(3-fluoro-2′-hydroxy-3″-(3-oxopiperazin-1-yl)-[1,1′:3′,1″-terphenyl]-4-yl)acetamide]	10 to 100	≥ 3000
CC(=O)Nc1ccc(-c2cccc(-c3ccnc(N4CCN[C@H](C)C4)c3)c2O)cc1F [Example 255, (R)-N-(3-fluoro-2′-hydroxy-3'-(2-(3-methylpiperazin-1-yl)pyridin-4-yl)-[1,1′-biphenyl]-4-yl)acetamide]	1 to 10	30 to 300
CC(=O)Nc1ccc(-c2cccc(-c3ccnc(N4CCN[C@H](C)C4)c3)c2O)cc1Cl [Example 256, (R)-N-(3-chloro-2′-hydroxy-3′-(2-(3-methylpiperazin-1-yl)pyridin-4-yl)-[1,1′-biphenyl]-4-yl)acetamide]	1 to 10	300 to 3000
O=C1CCC(=O)N1c1ccc(-c2cccc(-c3cncc(N4CCNCC4)c3)c2O)cc1F [Example 257, 1-(3-fluoro-2′-hydroxy-3′-(5-(piperazin-1-yl)pyridin-3-yl)-[1,1′-biphenyl]-4-yl)pyrrolidine-2,5-dione]	> 100	≥ 3000
CC(=O)Nc1ccc(-c2cccc(-c3cncc(N4CCN[C@H](C)C4)c3)c2O)cc1F [Example 258]	1 to 10	30 to 300
CC(=O)Nc1ccc(-c2cccc(-c3cncc(N4CCN[C@H](C)C4)c3)c2O)cc1Cl [Example 259, (R)-N-(3-chloro-2′-hydroxy-3′-(5-(3-methylpiperazin-1-yl)pyridin-3-yl)-[1,1′-biphenyl]-4-yl)acetamide]	1 to 10	30 to 300
COC(=O)c1cc(-c2cccc(-c3ccc(NC(C)=O)c(F)c3)c2O)cc(N2CCNCC2)n1 [Example 260, Methyl 4-(4′-acetamido-3′-fluoro-2-hydroxy-[1,1′-biphenyl]-3-yl)-6-(piperazin-1-yl)picolinate]	> 100	≥ 3000
CC(=O)Nc1ccc(-c2cccc(-c3ccnc(N4CC[C@@H](N)C4)c3)c2O)cc1F [Example 261, (R)-N-(3′-(2-(3-aminopyrrolidin-1-yl)pyridin-4-yl)-3-fluoro-2′-hydroxy-[1,1′-biphenyl]-4-yl)acetamide]	1 to 10	30 to 300
O=C1CCCN1c1ccc(-c2cccc(-c3cncc(N4CCNCC4)c3)c2O)cc1Cl [Example 262, 1-(3-chloro-2′-hydroxy-3′-(5-(piperazin-l-yl)pyridin-3-yl)-[1,1′-biphenyl]-4-yl)pyrrolidin-2-one]	1 to 10	30 to 300
O=C1CCCCN1c1ccc(-c2cccc(-c3ccnc(N4CCNCC4)c3)c2O)cc1F [Example 263, 1-(3-fluoro-2′-hydroxy-3′-(2-(piperazin-1-yl)pyridin-4-yl)-[1,1′-biphenyl]-4-yl)piperidin-2-one]	10 to 100	300 to 3000
C[C@@H]1CN(c2cncc(-c3cccc(-c4ccc(N5CCCC5=O)c(F)c4)c3O)c2)CCN1 [Example 264, (R)-1-(3-fluoro-2′-hydroxy-3′-(5-(3-methylpiperazin-1-yl)pyridin-3-yl)-[1,1′-biphenyl]-4-yl)pyrrolidin-2-one]	1 to 10	30 to 300
C[C@@H]1CN(c2cncc(-c3cccc(-c4ccc(N5CCCC5=O)c(Cl)c4)c3O)c2)CCN1 [Example 265, (R)-1-(3-chloro-2′-hydroxy-3′-(5-(3-methylpiperazin-1-yl)pyridin-3-yl)-[1,1'-biphenyl]-4-yl)pyrrolidin-2-one]	1 to 10	30 to 300
CC1CN(c2cc(-c3cccc(-c4ccc(N5CCCC5=O)c(F)c4)c3O)ccn2)CC(C)N1 (centres unmarked) [Example 266, 1-(3′-(2-(3,5-dimethylpiperazin-1-yl)pyridin-4-yl)-3-fluoro-2′-hydroxy-[1,1′-biphenyl]-4-yl)pyrrolidin-2-one]	1 to 10	300 to 3000
CC1CN(c2cc(-c3cccc(-c4ccc(N5CCCC5=O)c(Cl)c4)c3O)ccn2)CC(C)N1 (centres unmarked) [Example 267, 1-(3-chloro-3′-(2-(3,5-dimethylpiperazin-1-yl)pyridin-4-yl)-2′-hydroxy-[1,1′-biphenyl]-4-yl)pyrrolidin-2-one]	1 to 10	30 to 300
CC(=O)Nc1ccc(-c2cc(Cl)cc(-c3ccnc(N4CCNCC4)c3)c2O)cc1F [Example 268, N-(5′-chloro-3-fluoro-2′-hydroxy-3′-(2-(piperazin-1-yl)pyridin-4-yl)-[1,1′-biphenyl]-4-yl)acetamide]	1 to 10	30 to 300
O=C1CCCN1c1ccc(-c2cc(Cl)cc(-c3ccnc(N4CCNCC4)c3)c2O)cc1F [Example 269, 1-(5′-chloro-3-fluoro-2′-hydroxy-3′-(2-(piperazin-1-yl)pyridin-4-yl)-[1,1′-biphenyl]-4-yl)pyrrolidin-2-one]	1 to 10	300 to 3000
CC(=O)Nc1ccc(-c2cccc(-c3ccnc(N4CC5(CNC5)C4)c3)c2O)cc1F [Example 270, N-(3′-(2-(2,6-diazaspiro[3.3]heptan-2-yl)pyridin-4-yl)-3-fluoro-2′-hydroxy-[1,1′-biphenyl]-4-yl)acetamide]	1 to 10	300 to 3000
O=C1CCCN1c1ccc(-c2cccc(-c3ccnc(N4CC5(CNC5)C4)c3)c2O)cc1Cl [Example 271, 1-(3′-(2-(2,6-diazaspiro[3.3]heptan-2-yl)pyridin-4-yl)-3-chloro-2′-hydroxy-[1,1′-biphenyl]-4-yl)pyrrolidin-2-one]	10 to 100	300 to 3000
CC(=O)Nc1ccc(-c2cccc(-c3ccnc(N4CCC(O)CC4)c3)c2O)cc1F [Example 272, N-(3-fluoro-2′-hydroxy-3′-(2-(4-hydroxypiperidin-1-yl)pyridin-4-yl)-[1,1′-biphenyl]-4-yl)acetamide]	10 to 100	300 to 3000
CC(=O)Nc1ccc(-c2cccc(-c3cc(C(N)=O)nc(N4CCNCC4)c3)c2O)cc1F [Example 273, 4-(4′-acetamido-3′-fluoro-2-hydroxy-[1,1′-biphenyl]-3-yl)-6-(piperazin-1-yl)picolinamide]	10 to 100	300 to 3000
O=C1CCCN1c1ccc(-c2cc(Cl)cc(-c3ccnc(N4CCNCC4)c3)c2O)cc1Cl [Example 274, 1-(3,5′-dichloro-2′-hydroxy-3′-(2-(piperazin-1-yl)pyridin-4-yl)-[1,1′-biphenyl]-4-yl)pyrrolidin-2-one]	1 to 10	30 to 300
CC(=O)Nc1ccc(-c2cc(C)cc(-c3ccnc(N4CCNCC4)c3)c2O)cc1F [Example 275, N-(3-fluoro-2′-hydroxy-5′-methyl-3′-(2-(piperazin-1-yl)pyridin-4-yl)-[1,1′-biphenyl]-4-yl)acetamide]	1 to 10	30 to 300
O=C1NCCCN1c1ccc(-c2cccc(-c3ccnc(N4CCNCC4)c3)c2O)cc1Cl [Example 276, 1-(3-chloro-2′-hydroxy-3′-(2-(piperazin-l-yl)pyridin-4-yl)-[1,1′-biphenyl]-4-yl)tetrahydropyrimidin-2(1H)-one]	10 to 100	300 to 3000
